The numbers were not newly measured in patent US20210214291A1, “Rapid Thermal Isomerization of Lycopene” (priority 2020, published 2021), which cites them from elsewhere.

Where two headings read alike, the source gives them in different places.

The conditions of series [1]: organic solvents, 24 hrs.
Series [2] has as its system super oxide dismutase (SOD) activity. The conditions noted are these: for increase in SOD activity: patients.

As to `CC(C)=CCC/C(C)=C/C=C/C(C)=C/C=C/C(C)=C/C=C/C=C(C)/C=C/C=C(C)/C=C/C=C(\C)CCC=C(C)C` [trans-lycopene], the results for the “isomerization ratio to the cis-isomer” value in series [1] (4 C) and in series [1] (50 C) were 11.4% and 77.8%, respectively.

As to `CC(C)=CCC/C(C)=C/C=C/C(C)=C/C=C/C(C)=C/C=C/C=C(C)/C=C/C=C(C)/C=C/C=C(\C)CCC=C(C)C` [lycopene], the “increase in SOD activity” value in series [2] (daily 6 mg for 8 wks) was 1.73 units per milliliter; in series [2] (daily 15 mg for 8 wks), 2.37 units per milliliter. Further, the “reduction in C-reactive protein (CRP) levels” value in series [2] (high dose group (15 mg daily, 8 wks)) was 57%.
